# According to publication PMC10259803 (PLOS Pathogens, 2023):
# Test system: D39x comC^-
# Assay: in vitro recombination frequency, D39x comC^-
# Assay type: cell-based, Streptococcus pneumoniae
# Settings: for reduction of recombination frequency upon incubation of modified CSP with trypsin-like proteases: both PPT and HAT, compared with unmodified CSP1
# Protocol: During culture incubation, porcine pancreatic trypsin (PPT; Sigma #T4799) was reconstituted in Hank’s balanced salt solution (Gibco) and incubated with either water or 4-(2-Aminoethyl) benzenesulfonyl fluoride hydrochloride (AEBSF; Cayman #14321) in a total volume of 50μL 30mM Tris, pH 8.5 and incubated for 15 minutes, room temperature. CSP1 or CSP2 was added, followed by incubation for 30 minutes, room temperature. When the culture reached OD620~0.08, 1 mL of culture was transferred to the PPT-AEBSF-CSP mixture and 2 μg of D39 Tn-seq library gDNA (D39 strains) or 2 μg of TIGR4 Tn-seq library gDNA (TIGR4 strains) was added. […] Upon addition of the culture, the final concentration of PPT ranged from 0–10 μg/mL, AEBSF was 0.1 mM, CSP was 3 μg/mL, and gDNA was 2 μg/mL. The transformation was incubated for 3 hours at 37°C, 5% CO2, followed by serial dilution and plating on two TSA blood plates and two TSA blood plates supplemented with 200 μg/mL spectinomycin. To observe low-frequency recombination events, 200 μL of the transformation was also spread plated on two TSA blood plates supplemented with 200 μg/mL spectinomycin. For transformations with HAT incubated CSP, HAT (Bio-techne R&D #2695-SE-010) was reconstituted in 25mM Tris, 150mM NaCl, pH 7.5. All incubation times and final concentrations were the same as for PPT; however, the volumes were 1/10th as that for PPT. For both PPT and HAT, the experiment was repeated at least three times.
SMILES,reduction of recombination frequency upon incubation of modified CSP with trypsin-like proteases,HAT concentration to reduce recombination frequency below 5% of 0 trypsin: times less compared to unmodified CSP1 (CSP incubated with HAT) [times],"HAT concentration to reduce the recombination frequency to below 5% of 0 trypsin (CSP incubated with HAT 30 min, room temperature) [µg/mL]",PPT concentration to reduce recombination frequency below 5% of 0 trypsin: times less compared to unmodified CSP1 (CSP incubated with PPT) [times],"PPT concentration to reduce the recombination frequency to below 5% of 0 trypsin (CSP incubated with PPT 30 min, room temperature) [µg/mL]"
CC[C@H](C)[C@H](NC(=O)[C@H](Cc1ccccc1)NC(=O)[C@H](CC(=O)O)NC(=O)[C@H](CCCNC(=N)N)NC(=O)[C@H](Cc1ccccc1)NC(=O)[C@H](Cc1ccccc1)NC(=O)[C@H](Cc1c[nH]cn1)NC(=O)[C@H](CO)NC(=O)[C@H](CC(C)C)NC(=O)[C@H](CCCNC(=N)N)NC(=O)[C@H](CCSC)NC(=O)[C@@H](N)CCC(=O)O)C(=O)N[C@@H](CC(C)C)C(=O)N[C@@H](CCC(N)=O)C(=O)N[C@@H](CCCNC(=N)N)C(=O)N[C@@H](CCCCN)C(=O)N[C@@H](CCCCN)C(=O)O [K6H],similarly to that of unmodified CSP1,–,–,–,–
CC[C@H](C)[C@H](NC(=O)[C@H](Cc1ccccc1)NC(=O)[C@H](CC(=O)O)NC(=O)[C@H](CCCNC(=N)N)NC(=O)[C@H](Cc1ccccc1)NC(=O)[C@H](Cc1ccccc1)NC(=O)[C@H](CCCCN)NC(=O)[C@H](CO)NC(=O)[C@H](CC(C)C)NC(=O)[C@H](CCCNC(=N)N)NC(=O)[C@H](CCSC)NC(=O)[C@@H](N)CCC(=O)O)C(=O)N[C@@H](CC(C)C)C(=O)N[C@@H](CCC(N)=O)C(=O)N[C@@H](Cc1c[nH]cn1)C(=O)N[C@@H](CCCCN)C(=O)N[C@@H](CCCCN)C(=O)O [R15H],similarly to that of unmodified CSP1,–,–,–,–
CC[C@H](C)[C@H](NC(=O)[C@H](Cc1ccccc1)NC(=O)[C@H](CC(=O)O)NC(=O)[C@H](Cc1c[nH]cn1)NC(=O)[C@H](Cc1ccccc1)NC(=O)[C@H](Cc1ccccc1)NC(=O)[C@H](CCCCN)NC(=O)[C@H](CO)NC(=O)[C@H](CC(C)C)NC(=O)[C@H](CCCNC(=N)N)NC(=O)[C@H](CCSC)NC(=O)[C@@H](N)CCC(=O)O)C(=O)N[C@@H](CC(C)C)C(=O)N[C@@H](CCC(N)=O)C(=O)N[C@@H](CCCNC(=N)N)C(=O)N[C@@H](CCCCN)C(=O)N[C@@H](CCCCN)C(=O)O [R9H],to a greater extent than the unmodified CSP1,2,0.5,5,0.01
